The values that follow come from patent publication US11596639B2, “Substituted indole Mcl-1 inhibitors” (Vanderbilt University, priority 2016, dated 2023).

As a reminder, the Ki is a dissociation constant, usually derived from enzyme kinetics or from competition with a known ligand.

One assay has as its target Mcl-1 (Homo sapiens (Human), UniProt Q07820). Description: Fluorescence polarization anisotropy (FPA) competition assay, FITC-Bak or FITC-Bim BH3 peptide. The format is binding. The conditions noted are these: read-out: Ki for Inhibition of Mcl-1 by FPA assay. In general terms: Polarisation of emitted light reports the rotation of a fluorescent probe.
For assay [1], the system named is H929 human cancer cell lines. Briefly: Cellular viability / proliferation (Cell TiterGlo, 72 h). The class given is cell-based. In outline:
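Plating is at 1,000 cells/well in 10% FBS medium; after 24 h, compound is added as a 2-fold series starting at 50 μM with under 1% DMSO.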
On the technique in general: In ATP-based viability assays light output follows the ATP content of the culture.

Where [2] appears, read: Homo sapiens, NCI-H929, 72 h, read-out: GI50 on cellular proliferation of H929 human cancer cell lines, H929 cells, 72 h, Cell TiterGlo, 10% FBS.
Where [3] appears, read: H929 cells, 72 h, Cell TiterGlo, 10% FBS, read-out: GI50 on cellular proliferation of H929 human cancer cell lines.

Read-outs that look alike come from different tables or passages of the source.

Mcl-1, sequence (Q07820 172-327): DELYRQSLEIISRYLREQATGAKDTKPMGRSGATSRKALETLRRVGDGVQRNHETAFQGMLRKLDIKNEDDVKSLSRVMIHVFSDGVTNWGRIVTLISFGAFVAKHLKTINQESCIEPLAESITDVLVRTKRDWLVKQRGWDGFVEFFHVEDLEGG

`Cc1cc(OCCCc2c3n(c4c(-c5c(C)nn(C)c5C)c(Cl)ccc24)[C@H](C)CN(c2cn(C)c4cc(C(N)=O)ccc24)C3=O)cc(C)c1Cl` [Example 277, 3-[(4R)-7-chloro-10-[3-(4-chloro-3,5-dimethyl-phenoxy)propyl]-4-methyl-1-oxo-6-(1,3,5-trimethylpyrazol-4-yl)-3,4-dihydropyrazino[1,2-a]indol-2-yl]-1-methyl-indole-6-carboxamide]: the Ki on Mcl-1 is 6.6 nM. In addition, in assay [1] (setting [2]), the GI50 came out at 1400 nM.
On the same counts, the results for `Cc1cc(OCCCc2c3n(c4c(-c5c(C)nn(C)c5C)c(Cl)ccc24)[C@H](C)CN(c2cccc4cc(C(=O)O)cnc24)C3=O)cc(C)c1Cl` [Example 105, (R)-8-(7-Chloro-10-(3-(4-chloro-3,5-dimethylphenoxy)propyl)-4-methyl-1-oxo-6-(1,3,5-trimethyl-1H-pyrazol-4-yl)-3,4-dihydropyrazino[1,2-a]indol-2(1H)-yl)quinoline-3-carboxylic acid] are below 1 nM and 270 nM.
In the case of `Cc1cc(OCCCc2c3n(c4c(-c5c(C)nn(C)c5C)c(Cl)ccc24)[C@H](C)CN(c2cc(OCc4ccccc4)cc4c2cc(C(=O)O)n4C)C3=O)cc(C)c1Cl` [Example 310, (M, R)-6-(benzyloxy)-4-(7-chloro-10-(3-(4-chloro-3,5-dimethylphenoxy)propyl)-4-methyl-1-oxo-6-(1,3,5-trimethyl-1H-pyrazol-4-yl)-3,4-dihydropyrazino[1,2-a]indol-2(1H)-yl)-1-methyl-1H-indole-2-carboxylic acid], on Mcl-1, the Ki came out at 1.5 nM. In addition, the GI50 in assay [1] (setting [3]) came to 8900 nM.
`Cc1cc(OCCCc2c3n(c4c(-c5c(C)nn(C)c5C)c(Cl)ccc24)CCCN(c2cc(C(=O)O)cc4nn(C)cc24)C3=O)cc(C)c1Cl` [Example 36, 4-[8-Chloro-11-[3-(4-chloro-3,5-dimethyl-phenoxy)propyl]-1-oxo-7-(1,3,5-trimethylpyrazol-4-yl)-4,5-dihydro-3H-[1,4]diazepino[1,2-a]indol-2-yl]-2-methyl-indazole-6-carboxylic acid]: on Mcl-1, the Ki was below 1 nM. The GI50 in assay [1] (setting [2]) was determined as 2600 nM.
For `Cc1cc(OCCCc2c3n(c4c(-c5c(C)nc(CN6CCNCC6)nc5C)c(Cl)ccc24)[C@H](C)CN(c2cn(C)c4ccc(C(=O)O)cc24)C3=O)cc(C)c1Cl` [Example 441, (R)-3-(7-Chloro-10-(3-(4-chloro-3,5-dimethylphenoxy)propyl)-6-(4,6-dimethyl-2-(piperazin-1-ylmethyl)pyrimidin-5-yl)-4-methyl-1-oxo-3,4-dihydropyrazino[1,2-a]indol-2(1H)-yl)-1-methyl-1H-indole-5-carboxylic acid], the Ki at Mcl-1 came out at 7 nM. For the same compound, in assay [1] (setting [2]), the GI50 stood at 4600 nM.
As to `CC(=O)c1ccc2c(c1)c(N1C[C@@H](C)n3c(c(CCCOc4cc(C)c(Cl)c(C)c4)c4ccc(Cl)c(-c5c(C)nn(C)c5C)c43)C1=O)cn2C` [Example 260, (R)-2-(5-Acetyl-1-methyl-1H-indol-3-yl)-7-chloro-10-(3-(4-chloro-3,5-dimethylphenoxy)propyl)-4-methyl-6-(1,3,5-trimethyl-1H-pyrazol-4-yl)-3,4-dihydropyrazino[1,2-a]indol-1(2H)-one], at Mcl-1, the Ki was below 1 nM. In addition, the GI50 in assay [1] (setting [2]) was determined as 550 nM.
Turning to `Cc1cc(OCCCc2c3n(c4c(-c5c(C)nn(C)c5C)c(Cl)ccc24)[C@H](C)CN(c2cn(C)c4ccc(-c5nnn[nH]5)cc24)C3=O)cc(C)c1Cl` [Example 235, (R)-7-Chloro-10-(3-(4-chloro-3,5-dimethylphenoxy)propyl)-4-methyl-2-(1-methyl-5-(1H-tetrazol-5-yl)-1H-indol-3-yl)-&(1,3,5-trimethyl-1H-pyrazol-4-yl)-3,4-dihydropyrazino[1,2-a]indol-1(2H)-one], at Mcl-1, the Ki was below 1 nM. Also, the GI50 in assay [1] (setting [3]) amounted to 240 nM.
As for `Cc1cc(OCCCc2c3n(c4c(-c5c(C)nn(C)c5C)c(Cl)ccc24)[C@H](C)CN(c2cn(CCN4CCOCC4)c4cc(C(N)=O)ccc24)C3=O)cc(C)c1Cl` [Example 402, (R)-3-(7-Chloro-10-(3-(4-chloro-3,5-dimethylphenoxy)propyl)-4-methyl-1-oxo-6-(1,3,5-trimethyl-1H-pyrazol-4-yl)-3,4-dihydropyrazino[1,2-a]indol-2(1H)-yl)-1-(2-morpholinoethyl)-1H-indole-6-carboxamide], the Ki at Mcl-1 amounted to 4.9 nM. For the same compound, in assay [1] (setting [2]), the GI50 stood at 1100 nM.
In the same order, the values of `COc1cc(C(=O)O)cc(N2CCCn3c(c(CCCOc4cc(C)c(Cl)c(C)c4)c4ccc(Cl)c(-c5c(C)nn(C)c5C)c43)C2=O)c1OCCc1ccccc1` [Example 66, 3-[8-Chloro-11-[3-(4-chloro-3,5-dimethyl-phenoxy)propyl]-1-oxo-7-(1,3,5-trimethylpyrazol-4-yl)-4,5-dihydro-3H-[1,4]diazepino[1,2-a]indol-2-yl]-5-methoxy-4-(2-phenylethoxy)benzoic acid] are 4.3 nM and 6400 nM.
On the same counts, the results for `Cc1cc(OCCCc2c3n(c4c(-c5c(C)nc(CN6CCOCC6)nc5C)c(Cl)ccc24)[C@H](C)CN(c2cn(C)c4ccc(C(=O)O)cc24)C3=O)cc(C)c1Cl` [Example 398, (R)-3-(7-Chloro-10-(3-(4-chloro-3,5-dimethylphenoxy)propyl)-6-(4,6-dimethyl-2-(morpholinomethyl)pyrimidin-5-yl)-4-methyl-1-oxo-3,4-dihydropyrazino[1,2-a]indol-2(1H)-yl)-1-methyl-1H-indole-5-carboxylic acid] are below 1 nM and 200 nM.
For the compound `COc1cc(C(=O)O)cc(N2CCCn3c(c(CCCOc4cc(C)c(Cl)c(C)c4)c4ccc(Cl)c(-c5c(C)nn(C)c5C)c43)C2=O)c1OCCCO` [Example 67, 3-[8-Chloro-11-[3-(4-chloro-3,5-dimethyl-phenoxy)propyl]-1-oxo-7-(1,3,5-trimethylpyrazol-4-yl)-4,5-dihydro-3H-[1,4]diazepino[1,2-a]indol-2-yl]-4-(3-hydroxypropoxy)-5-methoxy-benzoic acid], the Ki at Mcl-1 was below 1 nM. Besides, the GI50 in assay [1] (setting [2]) was determined as 8500 nM.
Regarding `Cc1cc(OCCCc2c3n(c4c(-c5c(C)nn(C)c5C)c(Cl)ccc24)[C@H](C)CN(c2c[nH]c4ccc(-c5ncn(C)n5)cc24)C3=O)cc(C)c1Cl` [Example 471, (R)-7-chloro-10-(3-(4-chloro-3,5-dimethylphenoxy)propyl)-4-methyl-2-(5-(1-methyl-1H-1,2,4-triazol-3-yl)-1H-indol-3-yl)-6-(1,3,5-trimethyl-1H-pyrazol-4-yl)-3,4-dihydropyrazino[1,2-a]indol-1(2H)-one], the Ki at Mcl-1 was determined as 2.3 nM. Also, in assay [1] (setting [2]), the GI50 came to 360 nM.
On the same counts, the results for `Cc1cc(OCCCc2c3n(c4c(-c5c(C)nn(C)c5C)c(Cl)ccc24)[C@H](C)CN(c2cn(C)c4ccc(-c5nnnn5C)cc24)C3=O)cc(C)c1Cl` [Example 358, (R)-7-Chloro-10-(3-(4-chloro-3,5-dimethylphenoxy)propyl)-4-methyl-2-(1-methyl-5-(1-methyl-1H-tetrazol-5-yl)-1H-indol-3-yl)-6-(1,3,5-trimethyl-1H-pyrazol-4-yl)-3,4-dihydropyrazino[1,2-a]indol-1(2H)-one] are 4.2 nM and 2300 nM.
